Results as given in PubChem BioAssay AID328 (DTP/NCI, 2004).
Where “and” joins values, the source holds several entries; their conditions need not be identical. Equal values may be shown once. Toxic doses and inconclusive results are not listed. Non-standard residues stand in square brackets, D forms with d. Residues, ends and D or L forms follow the SMILES beside them. ξ: configuration not given here. ξPhe(4-N(CH2CH2Cl)2) = NC(Cc1ccc(N(CCCl)CCCl)cc1)C(=O)O

Test system: BDF1 mice, P388 leukemia ip, median survival T/C
Assay: NCI In Vivo Anticancer Drug Screen. Data for tumor model P388 Leukemia (intraperitoneal) in B6D2F1 (BDF1) mice
Details: endpoint: median survival time, higher = longer survival
Outline: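 Reported as T/C, where T is the survival measurement in dosed animals and C the same measurement in vehicle controls.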

[1] = dose: 100.0 mg/kg/injection, schedule: Q04DX003 (ip), vehicle: saline with Tween-80
[2] = dose: 200.0 mg/kg/injection, schedule: Q04DX003 (ip), vehicle: saline with Tween-80
[3] = dose: 400.0 mg/kg/injection, schedule: Q04DX003 (ip), vehicle: saline with Tween-80
[4] = dose: 25.0 mg/kg/injection, schedule: Q04DX003 (ip), vehicle: saline with Tween-80

CO[C@H]1Nc2c(ccc(C)c2O)C(=O)N2C=C(/C=C/C(N)=O)C[C@@H]12
T/C (dose: 0.02 mg/kg/injection, schedule: Q01DX010 (ip), vehicle: carboxymethylcellulose (CMC)): 230 % of control
T/C (dose: 0.05 mg/kg/injection, schedule: Q01DX010 (ip), vehicle: carboxymethylcellulose (CMC)): 230 % of control
T/C (dose: 0.08 mg/kg/injection, schedule: Q01DX009 (ip), vehicle: Klucel (hydroxypropylcellulose) (HPC)): 242 % of control
T/C (dose: 0.08 mg/kg/injection, schedule: Q01DX009 (ip), vehicle: saline): 150 % of control
T/C (dose: 0.1 mg/kg/injection, schedule: Q01DX010 (ip), vehicle: carboxymethylcellulose (CMC)): 210 % of control
T/C (dose: 0.12 mg/kg/injection, schedule: Q01DX009 (ip), vehicle: saline with Tween-80): 168 % of control
T/C (dose: 0.18 mg/kg/injection, schedule: Q01DX009 (ip), vehicle: Klucel (hydroxypropylcellulose) (HPC)): 238 % of control
T/C (dose: 0.2 mg/kg/injection, schedule: Q01DX010 (ip), vehicle: carboxymethylcellulose (CMC)): 185 % of control
T/C (dose: 0.25 mg/kg/injection, schedule: Q01DX010 (ip), vehicle: saline): 90 % of control
T/C (dose: 151.0 micrograms/kg/injection, schedule: Q04DX003 (ip), vehicle: saline + alcohol): 186 % of control
T/C (dose: 216.0 micrograms/kg/injection, schedule: Q04DX003 (ip), vehicle: saline + alcohol): 177 % of control and 189 % of control
T/C (dose: 252.0 micrograms/kg/injection, schedule: Q04DX003 (ip), vehicle: saline + alcohol): 208 % of control
T/C (dose: 360.0 micrograms/kg/injection, schedule: Q04DX003 (ip), vehicle: saline + alcohol): 183 % of control and 196 % of control
T/C (dose: 420.0 micrograms/kg/injection, schedule: Q04DX003 (ip), vehicle: saline + alcohol): 215 % of control
T/C (dose: 600.0 micrograms/kg/injection, schedule: Q04DX003 (ip), vehicle: saline + alcohol): 94 % of control and 112 % of control

Cc1nc(Cl)c(C#N)c(C)c1Cl
T/C (dose: 50.0 mg/kg/injection, schedule: Q01DX005 (ip), vehicle: saline with Tween-80): 97 % of control
T/C (dose: 100.0 mg/kg/injection, schedule: Q01DX005 (ip), vehicle: saline with Tween-80): 92 % of control
T/C (dose: 200.0 mg/kg/injection, schedule: Q01DX005 (ip), vehicle: saline with Tween-80): 94 % of control

Cc1ccc(OC/C=C/CSc2ccc(C)cc2)cc1
T/C (dose: 100.0 mg/kg/injection, schedule: Q04DX003 (ip), vehicle: Klucel (hydroxypropylcellulose) (HPC)): 108 % of control
T/C (dose: 200.0 mg/kg/injection, schedule: Q04DX003 (ip), vehicle: Klucel (hydroxypropylcellulose) (HPC)): 108 % of control
T/C (dose: 400.0 mg/kg/injection, schedule: Q04DX003 (ip), vehicle: Klucel (hydroxypropylcellulose) (HPC)): 108 % of control

CC(C)NC(=O)c1ccccc1-[s+]1c2ccccc2c(=O)n1C(C)C (stereo not drawn)
T/C [1]: 94 % of control
T/C [2]: 96 % of control
T/C [3]: 96 % of control

O=S(=O)([O-])NC1CCCCC1.O=S(=O)([O-])NC1CCCCC1.[Hg+2].[Hg+2].[Hg+2].[O-2].[O-2]
T/C (dose: 0.5 mg/kg/injection, schedule: Q01DX009 (ip), vehicle: Klucel (hydroxypropylcellulose) (HPC)): 99 % of control
T/C (dose: 1.0 mg/kg/injection, schedule: Q01DX009 (ip), vehicle: Klucel (hydroxypropylcellulose) (HPC)): 111 % of control
T/C (dose: 2.0 mg/kg/injection, schedule: Q01DX009 (ip), vehicle: Klucel (hydroxypropylcellulose) (HPC)): 111 % of control
T/C (dose: 4.0 mg/kg/injection, schedule: Q01DX009 (ip), vehicle: Klucel (hydroxypropylcellulose) (HPC)): 121 % of control
T/C (dose: 8.0 mg/kg/injection, schedule: Q01DX009 (ip), vehicle: Klucel (hydroxypropylcellulose) (HPC)): 101 % of control

Cc1ccccc1-c1nc2cc(Cl)ccc2c(=O)o1
T/C [4]: 104 % of control
T/C (dose: 50.0 mg/kg/injection, schedule: Q04DX003 (ip), vehicle: saline with Tween-80): 100 % of control
T/C [1]: 109 % of control

O=C1NC(=O)C(CSCc2ccccc2)(CSCc2ccccc2)N1
T/C (dose: 3.12 mg/kg/injection, schedule: Q04DX003 (ip), vehicle: saline with Tween-80): 101 % of control
T/C (dose: 6.25 mg/kg/injection, schedule: Q04DX003 (ip), vehicle: saline with Tween-80): 102 % of control
T/C (dose: 12.5 mg/kg/injection, schedule: Q04DX003 (ip), vehicle: saline with Tween-80): 99 % of control
T/C (dose: 25.0 mg/kg/injection, schedule: Q01DX009 (ip), vehicle: saline with Tween-80): 99 % of control
T/C [4]: 98 % of control
T/C (dose: 50.0 mg/kg/injection, schedule: Q01DX009 (ip), vehicle: saline with Tween-80): 107 % of control
T/C (dose: 100.0 mg/kg/injection, schedule: Q01DX009 (ip), vehicle: saline with Tween-80): 92 % of control
T/C (dose: 400.0 mg/kg/injection, schedule: Q01DX009 (ip), vehicle: saline with Tween-80): 86 % of control

NC(CO)C(=O)NC(CCC(=O)O)C(=O)NC(CO)C(=O)NC(CCC(=O)O)C(=O)NC(Cc1ccc(N(CCCl)CCCl)cc1)C(=O)O (stereo not drawn) (H-SESE[ξPhe(4-N(CH2CH2Cl)2)]-OH; configuration not given here)
T/C (dose: 5.0 mg/kg/injection, schedule: Q04DX003 (ip), vehicle: water): 100 % of control
T/C (dose: 10.0 mg/kg/injection, schedule: Q04DX003 (ip), vehicle: water): 98 % of control
T/C (dose: 20.0 mg/kg/injection, schedule: Q04DX003 (ip), vehicle: water): 97 % of control
T/C (dose: 40.0 mg/kg/injection, schedule: Q04DX003 (ip), vehicle: water): 100 % of control

O=C1c2ccccc2CCCC1N1CCOCC1 (stereo not drawn)
T/C [1]: 100 % of control
T/C [2]: 90 % of control
T/C [3]: 90 % of control

Clc1c(Cl)c(C[P+](CCP(c2ccccc2)c2ccccc2)(c2ccccc2)c2ccccc2)c(Cl)c(Cl)c1C[P+](CCP(c1ccccc1)c1ccccc1)(c1ccccc1)c1ccccc1
T/C (dose: 3.13 mg/kg/injection, schedule: Q01DX009 (ip), vehicle: suspension in saline): 114 % of control
